Data from article PMC7252619 (PLoS ONE, 2020).
Like-named read-outs stand apart in the source and are kept apart here.

What was measured:
[1] = system: human PBMCs (responder cells) with RPMI1788 stimulator cells; assay: Mixed Lymphocyte Reaction (MLR, T cell assay), 3H-thymidine incorporation; format: cell-based; details: Homo sapiens, RPMI-1788; mean of 4 independent measures; read-out: T-cell efficacy, MLR IC 50 (µM) Mean
VEGFR2 = VEGFR2 (Homo sapiens, UniProt P35968); assay: Kinase activity test (ReactionBiology), % enzyme activity relative to DMSO; format: biochemical; design: purchased ReactionBiology; details: VEGFR2;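 further: VEGFR2 was one member of a ten-kinase screening panel testing marketed FDA-approved drugs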
[2] = WST-1 cytotoxicity assay on Jurkat cells (T-cell line); format: cell-based, human; details: human, Jurkat cells (T-cell line), mean of 4 independent measures, read-out: Cytotoxicity, WST-1 Jurkat IC 50 (µM) Mean
Method: (§1) Compounds were prepared as 10 mM stock solutions in dimethylsulfoxide (DMSO)and were tested at 50-10-1-0.1-0.01 and 0.001 μM in the 4 assays.
The human B cell line RPMI1788 (American Type Culture Collection, USA) and the human T cell line Jurkat (European Collection of Cell Cultures, ECACC, England) were maintained in RPMI1640 culture medium (BioWhittaker®, Lonza, Verviers, Belgium) containing 10% foetal calf serum (FCS, HyClone® Thermo Scientific, United Kingdom) and 5 μg/mL gentamicin sulphate (BioWhittaker®, Lonza, Verviers, Belgium) at 37°C and 5% CO2.
WST-1 assays on RPMI-1788 cells and Jurkat cells were performed as follows: 20 μL of test compound dilution were added to each well containing exponential growing cells and the plates were incubated for 48 h at 37°C, 5% CO2. Untreated cells and positive control (1% triton X-100, for the last 15 min) served as reference for maximum and minimum viability. At the end of incubation 100 μL of supernatant were removed and replaced by 10 μL of WST-1 solution (Cell Proliferation Reagent WST-1, Roche Applied Science).

NEK2 = biological target: T1, NEK2 (Homo sapiens, UniProt P51955); assay: Kinase activity test (ReactionBiology), % enzyme activity relative to DMSO; format: biochemical; details: NEK2;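 further: FDA-approved drugs chosen by structure-based repositioning, each screened at 10 or 1 µM for kinase activity, expressed as percent of DMSO controls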
T1 construct: purchased ReactionBiology
T1 sequence (P51955 1-445): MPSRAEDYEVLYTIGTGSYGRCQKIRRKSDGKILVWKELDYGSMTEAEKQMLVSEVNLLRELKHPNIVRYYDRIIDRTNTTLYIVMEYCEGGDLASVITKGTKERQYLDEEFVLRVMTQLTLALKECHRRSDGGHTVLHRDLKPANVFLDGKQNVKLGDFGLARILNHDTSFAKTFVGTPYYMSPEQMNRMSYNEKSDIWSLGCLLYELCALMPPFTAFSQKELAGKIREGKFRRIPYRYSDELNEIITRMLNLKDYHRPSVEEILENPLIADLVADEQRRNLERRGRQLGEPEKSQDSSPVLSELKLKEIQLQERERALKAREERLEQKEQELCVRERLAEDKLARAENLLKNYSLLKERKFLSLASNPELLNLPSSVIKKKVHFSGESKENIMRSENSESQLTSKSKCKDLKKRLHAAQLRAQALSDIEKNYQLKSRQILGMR

[3] = WST-1 cytotoxicity assay on RPMI1788 cells (B-cell line); format: cell-based, human; details: human, RPMI1788 cells (B-cell line), mean of 4 independent measures, read-out: Cytotoxicity, WST-1 RPMI 1788 IC 50 (µM) Mean
CK1d = biological target: T2, CK1d (Homo sapiens, UniProt P48730); assay: Kinase activity test (ReactionBiology), % enzyme activity relative to DMSO; format: biochemical; details: CK1d
T2 construct: purchased ReactionBiology

human CD19+ B cells = assay: B-cell assay: IgG production of ODN2006-stimulated primary B cells (AlphaLISA); format: cell-based; details: Homo sapiens, B-cell, 168 h; IgG production, ODN2006 0.1 μM, 7 days; mean of 4 independent experiments; read-out: B-cell IC50
Method: as §1
Blood samples of healthy volunteers were collected at the Red Cross of Mechelen, Belgium.
Highly purified naive peripheral human B cells were separated from fresh human PBMCs on magnetic columns by positive selection using CD19 magnetic beads according to the manufacturer’s instructions (MACS Miltenyi Biotech, Leiden, The Netherlands). […] Freshly isolated human CD19+ B cells were then plated at 25 000 cells per well in a 384-well plate (Perkin Elmer, Zaventem, Belgium) in 55 μL in DMEM medium containing 10% FCS and 5 μg/mL gentamicin sulphate. After 7 days of stimulation with 0.1 μM ODN2006 (InvivoGen, Toulouse, France), supernatant was taken for analysis of IgG using the AlphaLISA human IgG kit according to the manufacturer’s instructions (Perkin Elmer, Zaventem, Belgium).

DAPK1 = biological target: T3, DAPK1 (Homo sapiens, UniProt P53355); assay: Kinase activity test (ReactionBiology), % enzyme activity relative to DMSO; format: biochemical; details: DAPK1
T3 construct: purchased ReactionBiology

MAP2K2 = biological target: T4, MAP2K2 (Homo sapiens, UniProt P36507); assay: as above; format: biochemical; details: MEK2
T4 construct: purchased ReactionBiology

MST-4 = biological target: T5, MST-4 (Homo sapiens, UniProt Q9P289); assay: as above; format: biochemical; details: MST4;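 further: marketed FDA-approved drugs screened at 10 µM and 1 µM against a ten-kinase panel, remaining activity given as percent of DMSO controls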
T5 construct: purchased ReactionBiology

[4] = Average, read-out: % Enzyme Activity (relative to DMSO controls), Average
[5] = replicate Data 1, read-out: % Enzyme Activity (relative to DMSO controls), Data 1
[6] = replicate Data 2, read-out: % Enzyme Activity (relative to DMSO controls), Data 2
[7] = 1 uM, Average, read-out: % Enzyme Activity (relative to DMSO controls), Average
[8] = 1 uM, replicate Data 1, read-out: % Enzyme Activity (relative to DMSO controls), Data 1
[9] = 1 uM, replicate Data 2, read-out: % Enzyme Activity (relative to DMSO controls), Data 2
[10] = 10 uM, Average, read-out: % Enzyme Activity (relative to DMSO controls), Average
[11] = 10 uM, replicate Data 1, read-out: % Enzyme Activity (relative to DMSO controls), Data 1
[12] = 10 uM, replicate Data 2, read-out: % Enzyme Activity (relative to DMSO controls), Data 2

T2 sequence (P48730 whole entry): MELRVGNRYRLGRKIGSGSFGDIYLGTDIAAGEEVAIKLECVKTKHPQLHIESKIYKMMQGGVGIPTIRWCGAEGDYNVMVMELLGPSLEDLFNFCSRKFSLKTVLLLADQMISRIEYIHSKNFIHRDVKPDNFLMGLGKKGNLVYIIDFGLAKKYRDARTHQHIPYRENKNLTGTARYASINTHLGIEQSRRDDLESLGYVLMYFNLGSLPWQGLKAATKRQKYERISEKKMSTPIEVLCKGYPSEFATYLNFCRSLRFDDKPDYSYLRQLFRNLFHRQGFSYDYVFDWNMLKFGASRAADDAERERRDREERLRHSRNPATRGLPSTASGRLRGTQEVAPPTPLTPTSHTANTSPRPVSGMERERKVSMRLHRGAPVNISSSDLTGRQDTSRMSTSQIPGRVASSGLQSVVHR
T5 sequence (Q9P289 whole entry): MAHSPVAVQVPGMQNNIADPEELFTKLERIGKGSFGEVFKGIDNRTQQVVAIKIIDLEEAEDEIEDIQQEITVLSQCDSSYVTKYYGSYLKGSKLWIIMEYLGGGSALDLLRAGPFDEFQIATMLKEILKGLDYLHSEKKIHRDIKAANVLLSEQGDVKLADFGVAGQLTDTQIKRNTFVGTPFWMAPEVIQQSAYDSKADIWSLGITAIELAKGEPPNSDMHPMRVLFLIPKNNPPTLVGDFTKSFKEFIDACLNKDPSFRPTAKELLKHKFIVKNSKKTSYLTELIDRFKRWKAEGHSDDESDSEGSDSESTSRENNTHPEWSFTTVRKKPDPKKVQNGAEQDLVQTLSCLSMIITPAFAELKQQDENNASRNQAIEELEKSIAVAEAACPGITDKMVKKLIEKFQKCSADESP
VEGFR2, sequence (P35968 20-1356): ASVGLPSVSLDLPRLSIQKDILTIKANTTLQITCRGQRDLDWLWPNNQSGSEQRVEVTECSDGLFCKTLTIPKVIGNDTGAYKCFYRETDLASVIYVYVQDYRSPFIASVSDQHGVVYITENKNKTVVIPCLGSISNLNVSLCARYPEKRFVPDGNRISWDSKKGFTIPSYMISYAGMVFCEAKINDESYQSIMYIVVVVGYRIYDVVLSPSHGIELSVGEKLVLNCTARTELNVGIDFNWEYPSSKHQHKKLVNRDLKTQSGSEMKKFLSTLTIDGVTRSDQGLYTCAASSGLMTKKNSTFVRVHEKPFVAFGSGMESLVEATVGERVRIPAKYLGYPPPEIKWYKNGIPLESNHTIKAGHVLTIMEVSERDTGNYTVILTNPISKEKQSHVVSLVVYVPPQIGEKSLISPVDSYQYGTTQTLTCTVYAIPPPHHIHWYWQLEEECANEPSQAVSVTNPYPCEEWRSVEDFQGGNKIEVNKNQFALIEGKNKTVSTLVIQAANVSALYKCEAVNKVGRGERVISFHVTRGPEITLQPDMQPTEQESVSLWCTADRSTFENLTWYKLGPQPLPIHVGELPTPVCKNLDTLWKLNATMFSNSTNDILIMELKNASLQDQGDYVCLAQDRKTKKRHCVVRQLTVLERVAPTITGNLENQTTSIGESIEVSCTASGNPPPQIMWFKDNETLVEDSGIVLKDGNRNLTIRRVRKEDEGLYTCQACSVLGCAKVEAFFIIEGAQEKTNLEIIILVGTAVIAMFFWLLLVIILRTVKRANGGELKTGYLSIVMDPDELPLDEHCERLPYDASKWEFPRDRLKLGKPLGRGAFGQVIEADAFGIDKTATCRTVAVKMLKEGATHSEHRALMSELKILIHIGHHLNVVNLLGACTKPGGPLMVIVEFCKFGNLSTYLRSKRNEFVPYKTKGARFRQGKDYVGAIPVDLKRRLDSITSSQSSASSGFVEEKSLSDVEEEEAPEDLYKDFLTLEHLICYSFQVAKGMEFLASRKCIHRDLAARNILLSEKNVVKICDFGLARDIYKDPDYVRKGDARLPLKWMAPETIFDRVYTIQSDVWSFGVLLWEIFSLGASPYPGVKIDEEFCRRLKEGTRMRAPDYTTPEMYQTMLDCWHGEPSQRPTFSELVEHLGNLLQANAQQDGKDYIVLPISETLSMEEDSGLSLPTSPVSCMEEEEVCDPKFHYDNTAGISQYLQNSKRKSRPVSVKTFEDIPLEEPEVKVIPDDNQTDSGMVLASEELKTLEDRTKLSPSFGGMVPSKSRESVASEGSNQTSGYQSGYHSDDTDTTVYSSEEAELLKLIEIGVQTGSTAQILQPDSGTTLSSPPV
T4 sequence (P36507 whole entry): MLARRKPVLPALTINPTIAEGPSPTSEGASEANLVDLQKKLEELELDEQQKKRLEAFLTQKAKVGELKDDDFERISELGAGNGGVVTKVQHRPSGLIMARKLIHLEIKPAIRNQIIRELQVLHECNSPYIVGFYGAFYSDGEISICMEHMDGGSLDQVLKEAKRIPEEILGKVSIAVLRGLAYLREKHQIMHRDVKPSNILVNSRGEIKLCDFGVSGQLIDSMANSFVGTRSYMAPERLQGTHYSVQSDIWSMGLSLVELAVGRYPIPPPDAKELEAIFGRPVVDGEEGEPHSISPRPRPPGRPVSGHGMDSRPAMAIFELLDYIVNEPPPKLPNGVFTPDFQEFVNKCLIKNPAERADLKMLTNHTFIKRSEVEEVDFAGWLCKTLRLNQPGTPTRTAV
T3 sequence (P53355 whole entry): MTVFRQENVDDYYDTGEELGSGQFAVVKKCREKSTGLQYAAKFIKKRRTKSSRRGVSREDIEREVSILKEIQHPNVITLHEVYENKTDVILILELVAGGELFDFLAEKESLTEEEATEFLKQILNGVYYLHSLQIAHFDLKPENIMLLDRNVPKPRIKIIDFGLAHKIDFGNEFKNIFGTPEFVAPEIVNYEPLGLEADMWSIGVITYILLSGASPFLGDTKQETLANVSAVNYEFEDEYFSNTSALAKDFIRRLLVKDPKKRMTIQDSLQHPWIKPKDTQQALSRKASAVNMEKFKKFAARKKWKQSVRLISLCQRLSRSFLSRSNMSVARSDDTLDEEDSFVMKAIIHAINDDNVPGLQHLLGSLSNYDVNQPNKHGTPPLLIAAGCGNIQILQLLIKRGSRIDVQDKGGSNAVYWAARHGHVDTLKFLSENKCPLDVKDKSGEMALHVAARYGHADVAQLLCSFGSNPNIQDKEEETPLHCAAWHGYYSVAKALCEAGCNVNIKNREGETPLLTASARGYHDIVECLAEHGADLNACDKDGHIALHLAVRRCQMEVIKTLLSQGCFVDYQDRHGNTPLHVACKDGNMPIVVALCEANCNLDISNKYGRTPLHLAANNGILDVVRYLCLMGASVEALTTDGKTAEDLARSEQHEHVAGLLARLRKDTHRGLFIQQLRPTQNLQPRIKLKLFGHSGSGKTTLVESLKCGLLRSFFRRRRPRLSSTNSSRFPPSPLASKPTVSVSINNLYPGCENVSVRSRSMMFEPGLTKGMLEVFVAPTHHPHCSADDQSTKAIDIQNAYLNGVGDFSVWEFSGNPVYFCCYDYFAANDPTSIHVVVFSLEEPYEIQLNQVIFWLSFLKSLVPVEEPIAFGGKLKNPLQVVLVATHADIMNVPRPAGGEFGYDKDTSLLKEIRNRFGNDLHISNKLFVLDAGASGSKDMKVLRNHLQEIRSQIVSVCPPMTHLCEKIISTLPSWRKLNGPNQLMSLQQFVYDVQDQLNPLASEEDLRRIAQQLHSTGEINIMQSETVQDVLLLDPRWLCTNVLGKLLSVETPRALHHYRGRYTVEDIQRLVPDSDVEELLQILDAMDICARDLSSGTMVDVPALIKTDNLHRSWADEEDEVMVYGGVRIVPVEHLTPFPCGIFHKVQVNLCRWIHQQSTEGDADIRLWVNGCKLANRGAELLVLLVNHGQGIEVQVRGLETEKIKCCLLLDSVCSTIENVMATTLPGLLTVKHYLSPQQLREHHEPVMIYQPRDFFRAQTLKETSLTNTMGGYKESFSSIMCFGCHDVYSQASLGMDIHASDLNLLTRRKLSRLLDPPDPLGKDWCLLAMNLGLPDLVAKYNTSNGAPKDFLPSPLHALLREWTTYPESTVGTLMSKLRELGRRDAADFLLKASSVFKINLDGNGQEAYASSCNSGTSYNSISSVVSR

remaining activity at 1 µM (NEK2; [7]) [%] | remaining activity at 1 µM (NEK2; [8]) [%] | remaining activity at 1 µM (NEK2; [9]) [%] | remaining activity at 10 µM (NEK2; [10]) [%] | remaining activity at 10 µM (NEK2; [11]) [%] | remaining activity at 10 µM (NEK2; [12]) [%] | remaining activity at 1 µM (CK1d; [4]) [%] | remaining activity at 1 µM (CK1d; [5]) [%] | remaining activity at 1 µM (CK1d; [6]) [%] | remaining activity at 10 µM (CK1d; [4]) [%] | remaining activity at 10 µM (CK1d; [5]) [%] | remaining activity at 10 µM (CK1d; [6]) [%] | IC50 (human CD19+ B cells) [µM] | Compound | IC50 [1] [µM] | IC50 at 48 h [2] [µM] | IC50 at 48 h [3] [µM] | other results
90.2 | 91.2 | 89.1 | 48.1 | 47.1 | 49.1 | 106 | 106 | 106 | 97.2 | 99.7 | 94.7 | 34.1 | N[C@@H](Cc1cc(I)c(Oc2cc(I)c(O)c(I)c2)c(I)c1)C(=O)O [Thyroxine, reference compound] | > 50 | > 50 | > 50 | remaining activity at 1 µM (VEGFR2; [4]): 104%; remaining activity at 1 µM (VEGFR2; [5]): 106%; remaining activity at 1 µM (VEGFR2; [6]): 103%; remaining activity at 10 µM (VEGFR2; [4]): 86.6%; remaining activity at 10 µM (VEGFR2; [5]): 89.7%; remaining activity at 10 µM (VEGFR2; [6]): 83.5%; remaining activity at 1 µM (NEK2; compound 1μM, relative to DMSO controls, read-out: % Enzyme activity at 1μM): 90.2%; remaining activity at 10 µM (NEK2; compound 10μM, relative to DMSO controls, read-out: % Enzyme activity at 10μM): 48.1%
81.6 | 81.9 | 81.2 | 19 | 20 | 18 | 98.7 | 95.4 | 102 | 92.7 | 93.2 | 92.2 | 0.046 | Cc1nc(Nc2ncc(C(=O)Nc3c(C)cccc3Cl)s2)cc(N2CCN(CCO)CC2)n1 [Dasatinib, reference compound] | 0.0032 | 7.3 | 0.0324 | remaining activity at 1 µM (DAPK1; [4]): 92%; remaining activity at 1 µM (DAPK1; [5]): 91.8%; remaining activity at 1 µM (DAPK1; [6]): 92.1%; remaining activity at 10 µM (DAPK1; [4]): 51.4%; remaining activity at 10 µM (DAPK1; [5]): 49.9%; remaining activity at 10 µM (DAPK1; [6]): 52.8%; remaining activity at 1 µM (MAP2K2; [4]): 45.1%; remaining activity at 1 µM (MAP2K2; [5]): 44.8%; remaining activity at 1 µM (MAP2K2; [6]): 45.5%; remaining activity at 10 µM (MAP2K2; [4]): 7.91%; remaining activity at 10 µM (MAP2K2; [5]): 8.25%; remaining activity at 10 µM (MAP2K2; [6]): 7.56%; remaining activity at 1 µM (MST-4; [4]): 40.2%; remaining activity at 1 µM (MST-4; [5]): 46.5%; remaining activity at 1 µM (MST-4; [6]): 33.9%; remaining activity at 10 µM (MST-4; [4]): 12%; remaining activity at 10 µM (MST-4; [5]): 9.39%; remaining activity at 10 µM (MST-4; [6]): 14.6%
